In one assay the target is DHp-CA domain of RavS (Xanthomonas campestris pv. campestris, UniProt Q8P9A6). As to the kind of experiment: microscale thermophoresis (MST) binding. The conditions noted are these: read-out: dissociation constant (Kd). The procedure: (§1) Fig 6 Arg^656 in the CA domain of RavS is a key residue for c-di-GMP binding. (a, b) c-di-GMP binds to the DHp-CA domain of RavS. PAS-A, PAS-B and DHp-CA in (a), and DHp and CA domains of RavS in (b), were purified and the interaction with c-di-GMP was measured by MST. Each assay was repeated three times. Standard deviations are shown. (c) Molecular docking model of the interaction between c-di-GMP and DHp-CA of RavS. c-di-GMP is shown as a ball-and-stick model and DHp-CA is shown in ribbon representation. (d) Schematic view of the predicted docking site between c-di-GMP and DHp-CA. Potential hydrogen bonds are indicated as blue dashed lines. Autodock software was used to predict the interaction. (e) Effect of amino acid substitutions on RavS–c-di-GMP binding. Ten recombinant proteins of the DHp-CA region, each containing a substitution of a putative essential residue involved in c-di-GMP binding, were used in the MST assay to quantify the Kd value of RavS–c-di-GMP binding. fl-c-di-GMP was used in the MST assay. Each experiment was repeated three times. […] The reactions were terminated with 5× SDS loading buffer and the products were separated by 12% SDS-PAGE, exposed to a phosphor screen and analysed by Typhoon FLA7000. […]
(§2) The interaction between c-di-GMP nucleotides and various proteins was measured by using MST with a fluorescein-labelled c-di-GMP (2′-Fluo-AHC-c-di-GMP, abbreviated as fl-c-di-GMP; 2′-Fluo-AHC-c-di-AMP, fl-c-di-AMP; 2′-Fluo-AHC-cGMP, fl-cGMP; Biolog, Germany). These chemicals contain carboxyfluorescein that has excitation and emission wavelengths of 497 nm and 520 nm, respectively, which can be detected directly by a MST instrument. […] Fluorescence intensity due to thermophoresis was recorded using the blue channel optics of the instrument (λex = 470 ± 15 nm, λem = 520 ± 10 nm) during a 30 s period of infrared laser heating at 80% of the maximum laser power, followed by a 5 s cooling period. […]

The target of the next assay is CA domain of RavS (Xanthomonas campestris pv. campestris, UniProt Q8P9A6). The assay is described as follows: microscale thermophoresis (MST) binding. Particulars: read-out: dissociation constant (Kd). The protocol: as §1, §2
On the technique in general: In MST a laser heats a spot of the sample, and binding alters the fluorescence response.

Another assay relates to RavS^ΔN(R656A). The assay is described as follows: in vitro phosphotransfer assay with Arg656-substituted RavS. The assay is classed as biochemical, Xanthomonas campestris pv. campestris. Particulars: 15 or 100 μM c-di-GMP. The protocol:
as §1, with “(e) Effect of amino acid substitutions on RavS–c-di-GMP binding.” left out, “assay.” for “assay. Each experiment was repeated three times.”
An in vitro autophosphorylation assay was conducted as described in our previous study. […] After electrophoresis, gels were exposed to a phosphor screen (GE Healthcare) and the autoradiographic signals were detected by a Typhoon FLA7000 (GE Healthcare).

The target of another assay is T1, DHp-CA^R656A (Xanthomonas campestris pv. campestris, UniProt Q8P9A6, R656A).
T1 sequence (Q8P9A6 464-697 R656A): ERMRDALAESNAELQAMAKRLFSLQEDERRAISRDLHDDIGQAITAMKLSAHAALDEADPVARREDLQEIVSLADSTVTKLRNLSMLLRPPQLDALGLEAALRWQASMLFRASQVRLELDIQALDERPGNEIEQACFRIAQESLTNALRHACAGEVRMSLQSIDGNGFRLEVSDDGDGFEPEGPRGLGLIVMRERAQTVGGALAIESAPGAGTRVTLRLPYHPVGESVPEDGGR
As to the kind of experiment: microscale thermophoresis (MST) binding. Particulars: compared with DHp-CA protein. The protocol: as §1, §2

We go through 2 molecules from article PMC6707612, “Cyclic-di-GMP binds to histidine kinase RavS to control RavS-RavR phosphotransfer and regulates the bacterial lifestyle transition between virulence and swimming” (PLoS Pathogens, 2019).

The term Kd denotes the equilibrium constant for the complex coming apart.

As to `Nc1nc2c(ncn2[C@@H]2O[C@@H]3COP(=O)(O)O[C@H]4[C@@H](OC(=O)NCCCCCCNC(=O)c5ccc6c(c5)C(=O)OC65c6ccc(O)cc6Oc6cc(O)ccc65)[C@H](n5cnc6c(=O)[nH]c(N)nc65)O[C@@H]4COP(=O)(O)O[C@H]3[C@H]2O)c(=O)[nH]1` [fl-c-di-GMP, 2′-Fluo-AHC-c-di-GMP], the figures for the Kd on DHp-CA domain of RavS and on CA domain of RavS were 6.25 ± 0.8 µM and 17.1 ± 3.78 µM, respectively.

Consider `Nc1nc2c(ncn2[C@@H]2O[C@@H]3COP(=O)(O)O[C@H]4[C@@H](O)[C@H](n5cnc6c(=O)[nH]c(N)nc65)O[C@@H]4COP(=O)(O)O[C@H]3[C@H]2O)c(=O)[nH]1` [c-di-GMP, Cyclic di-GMP], for which the “stimulation of phosphotransferase activity of RavS^ΔN(R656A)~P towards RavR^ΔEAL” value with RavS^ΔN(R656A) was “failed to stimulate”. In addition, the “fold decrease in binding affinity” value at DHp-CA^R656A is on record as 10 fold.
